Test results reported in patent EP1655287A1, “PROBE FOR DISEASES WITH AMYLOID ACCUMULATION, AMYLOID-STAINING AGENT, REMEDY AND PREVENTIVE FOR DISEASES WITH AMYLOID ACCUMULATION AND DIAGNOSTIC PROBE AND STAINING AGENT FOR NEUROFIBRILLARY CHANGE” (priority 2003, dated 2005).

Columns and labels:
[1] = system: Amyloid β-protein; test: Screening of the degree of β-structure recognition (fluorescence, in the presence of Congo red); format: binding; conditions: test compound 5 µM, amyloid β-protein 5 µM, Congo red 0.1 µM, phosphate buffer pH 7.4
[2] = Acute toxicity testing, intravenous administration; format: in vivo; conditions: male Crj:CD1 mice, via tail vein, observed up to 7 days; for MTD at 168 h: mouse, in vivo, iv, read-out: Maximum Tolerated Dose (mg/kg, intravenous administration)
Description: The following explanation is made of testing methods for properties of the compounds of the present invention. (A) Testing of acute toxicity Acute toxicity of the inventive compounds was determined employing mice by intravenous administration. Male Crj:CD1 mice were used and divided into groups of 4 mice, with an average weight of each group of 31-32 g. […] Up to 7 days after administration, observations were made.

[3] = target: T1, senile plaques (Homo sapiens, UniProt P05067); test: Staining of senile plaques and diffuse plaques in brain sections, compared with thioflavin S, BSB or anti-Aβ antibody 6F/3D immunostaining; format: binding, patient with Alzheimer's disease; conditions: 100 µM compound in 50% ethanol; for staining properties in sections of the brain of a patient with Alzheimer's disease: compared with thioflavin S (and BSB) on adjacent sections; for staining properties compared with immunostaining of anti-Aβ antibody 6F/3D: adjacent sections immunostained with 6F/3D
T1 construct: The former has, as the main component, amyloid β-protein (Aβ protein) taking β-sheet structures; from tissue; host or cells: paraffin-embedded temporal lobe or hippocampus sections of an Alzheimer's disease patient's brain (Fukushimura Hospital)
Text: The following explanation is made about testing of staining properties of the compounds of the present invention on brain sections of an Alzheimer's disease patient. • (1) Temporal lobe or hippocampus specimens of the brain of a patient who had been definitely diagnosed pathologically as Alzheimer's disease and of a normal aged individual were used. These specimens were provided from Fukushimura Hospital, our joint research facility, with the consent to their use for research purpose received from the bereaved family of the patient (BF Research Laboratories Institutional Ethics Board Permission No. RS-99-02). • (2) The brain tissues embedded in paraffin were sliced 6 or 8 µm thick, extended on slides, and dried. The paraffin-embedded brain sections were deparaffined by washing sequentially with xylene (10 minutes, twice), 100% ethanol (15 minutes, twice), 95% ethanol (15 minutes, twice), and a stream of water (10 minutes). • (3) Pre-treatment for staining with compounds of the present invention involved treating the sections for eliminating self-fluorescence due to lipofuscin. First, the deparaffined sections were immersed into a 10% formalin solution for 60 minutes and washed with PBS for 5 minutes, followed by immersion into a 0.25% solution of KMnO4 for 90 minutes. After washing twice with PBS for 2 minutes each, the sections were immersed into a solution of 0.1% K2S2O5/oxalic acid for about 30 seconds each, and then washed three times with PBS for 2 minutes each. • (4) About 150 µl of a 100 µM solution of a compound of the present invention dissolved in 50% ethanol was added dropwise onto the sections and allowed the reaction to be carried out for 10 minutes. The sections were dipped into tap water five times, and then 50% ethanol three to five times, followed by immediate classification. After that, the sections were immersed into PBS for 60 minutes, enclosed with Fluor Save Reagent (Calbiochem), and examined under a fluorescent microscope (Nikon, Eclips E800). Pictures were taken using a digital camera (Plaroid PDMCII).
Immunostaining was carried out as follows. • (a) Procedures for immunostaining amyloid β-protein: • (1) After the sections were deparaffined, the sections were washed twice in distilled water for 2 minutes each, and tissues were marked with an Immunopen. About 150 µl of formic acid was added dropwise and allowed to stand at room temperature for 5 minutes. The sections were washed with tap water for 5 minutes and immersed into cold PBS-Tween 20 for 2 minutes, and then about 150 µl of a 0.05% trypsin solution was added dropwise and allowed the reaction to be carried out at 37°C for 15 minutes. • (2) In an ice bath, the sections were washed twice with cold PBS-Tween 20 for 5 minutes each, and two drops of blocking serum were added and allowed the reaction to be carried out at 37°C for 15 minutes. Excess water was removed, and about 150 µl of 6F/3D, an antibody specific to amyloid β-protein (DAKO; diluted 1:50) was added dropwise and allowed the reaction to be carried out at 37°C for 1 hour. • (3) Further, after washing five times with cold PBS-Tween 20 for 2 minutes each, two drops of a solution of goat antimouse IgG (H+L) conjugated to biotin were added and allowed the reaction to be carried out at 37°C for 1 hour. After that, the sections were washed three times with cold PBS-Tween 20 for 2 minutes each, and two drops of ABS solution (a streptavidin-biotin-peroxidase complex solution) were added and allowed to stand for 30 minutes. The sections were again washed three times with cold PBS-Tween 20 for 2 minutes each, and about 150 µl of DAB solution (prepared by dissolving 10 mg of DAB in 20 ml of 0.05 mol/l Tris-HCl buffer and adding 100 µl of 3% hydrogen peroxide immediately before use) were added and allowed the color to be developed sufficiently. Then, the sections were washed with distilled water for 1 minute to stop the reaction, enclosed, and examined under a microscope.

[4] = Blood-brain barrier permeability after intravenous administration; conditions: for Plasma: mice, content in plasma two minutes after intravenous administration; for tissue uptake at 2 min: mouse, brain, iv
Description: (B) Testing of blood-brain barrier permeability Measurements of blood-brain barrier permeability were made according to the following procedures. Compounds of the present invention were intravenously administered to mice to determine their in vivo blood-brain barrier permeability. • (1) Mice utilized Slc:ICR weighing 30-40 g (7 weeks old, n=3) (Nippon SLC). • (2) A test compound was dissolved in a mixture of 1N HCl, polyethylene glycol 400, and DMSO, or in DMSO or ethyl alcohol, and then diluted with purified water, and injected via tail vein. Two minutes after administration, the mice, under ether anesthesia, were subjected to taking blood from the abdominal aorta with a heparin-treated syringe and removing the brain. • (3) After taking blood, blood samples were centrifuged at 14,000 rpm at 4°C for 10 minutes, and their supernatants were kept at -80°C as plasma sample. The brain (including cerebellum) was kept at -80°C after its removal. • (4) The plasma sample, when used, was thawed, diluted with purified water, and then applied to a conditioned C18 solid-phase extraction cartridge (bond elute C18, 200 mg, Varian), followed by elution with methyl alcohol. Alternatively, after thawing the plasma sample, a diethyl ether/cyclohexane mixture was added, and the mixture was shaken, and then centrifuged to separate an oil layer. • (5) The brain material, when used, was subjected to measuring its wet weight with the brain remaining frozen, and saline was added to the brain for homogenization. The homogenate was centrifuged for 10 minutes, and the supernatant was applied to a conditioned C18 solid-phase extraction cartridge and eluted with methyl alcohol. Alternatively, after measuring the wet weight of the frozen brain, a diethyl ether/cyclohexane mixture was added to the brain, and the mixture was homogenized, shaken, and then centrifuged to separate an oil layer. • (6) The absorbance and fluorescence were detected employing high performance liquid chromatography. • (7) For each of the plasma and brain, the content of the test compound in the plasma or brain (%ID (injected dose)/ml or g) was determined, relative to the administered dose.

T1 sequence (P05067 672-713 limits assumed): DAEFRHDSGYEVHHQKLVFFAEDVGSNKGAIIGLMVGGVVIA

staining properties in sections of the brain of a patient with Alzheimer's disease [3]	Molecule	Degree of β-structure recognition (%) [1] [%]	other results
–	CN(C)c1cnc(/C=C/c2nc3ccccc3s2)o1 [BF-250, 2-[2-(5-dimethylaminooxazol-2-yl)ethenyl]benzothiazole]	43.1	–
–	Cc1ccc(S(=O)(=O)OCCOc2ccc3nc(/C=C/c4cnc(N(C)C)s4)sc3c2)cc1 [BF-251, 2-[2-(2-dimethylaminothiazol-5-yl)ethenyl]-6-[2-(4-tosyloxy)ethoxy]benzothiazole]	37.5	–
–	Nc1cnc(-c2ccc3ccccc3n2)o1 [BF-255, 2-(5-アミノオキサゾール-2-イル)キノリン]	65.8	–
–	CNc1ncc(/C=C/c2ccc(O)cc2)s1 [BF-235, 5-(4-hydroxystyryl)-2-methylaminothiazole]	65.5	–
–	Cc1nc(/C=C/C=C/c2cnc(N(C)C)o2)oc1C [BF-229, 2-[4-(2-dimethylaminooxazol-5-yl)-1,3-butadienyl]-4,5-dimethyloxazole]	70.7	–
–	CN(C)c1ncc(-c2nc3ccccc3o2)s1 [BF-225, 2-(2-dimethylaminothiazol-5-yl)benzoxazole]	87.5	–
–	CN(C)c1ncc(/C=C/c2nc3ccccc3[nH]2)s1 [BF-248, 2-[2-(2-dimethylaminothiazol-5-yl)ethenyl]benzimidazole]	40.1	–
–	CN(C)c1ncc(-c2ccc3ccccc3n2)o1 [BF-221, 2-(2-dimethylaminooxazol-5-yl)quinoline]	73.8	–
–	Cc1nc(/C=C/C=C/c2ccc(N(C)C)cc2)oc1C [BF-228, 2-[4-(4-dimethylaminophenyl)-1,3-butadienyl]-4,5-dimethyloxazole]	83.8	MTD at 168 h [2]: ≥ 10 mg/kg
stains senile plaques	CNc1ccc(/C=C/C=C/c2nc3ccccc3[nH]2)cc1 [BF-188, 2-[[4-(4-methylamino)phenyl]-1,3-butadienyl]benzoimidazole]	68.9	Plasma [4]: 1.7 %ID/g or ml
–	CN(C)c1ncc(/C=C/c2nc3ccc(OCCF)cc3s2)s1 [BF-252, 2-[2-(2-dimethylaminothiazol-5-yl)ethenyl]-6-[2-(fluoro)ethoxy]benzothiazole]	47.0	–
–	CN(C)c1nnc(/C=C/c2nc3ccccc3o2)o1 [BF-238, 2-[2-(2-dimethylamino-1,3,4-oxazol-5-yl)ethenyl]benzoxazole]	52.3	–
–	CN(C)c1ncc(/C=C/c2nc3ccccc3o2)o1 [BF-230, 2-[2-(2-dimethylaminooxazol-5-yl)ethenyl]benzoxazole]	74.0	MTD at 168 h [2]: ≥ 10 mg/kg
stains senile plaques	CNc1ccc(/C=C/C=C/c2nc3ccccc3s2)cc1 [BF-187, 2-[[4-(4-methylamino)phenyl]-1,3-butadienyl)benzothiazole]	63.3	Plasma [4]: 1.3 %ID/g or ml
–	Nc1ncc(-c2ccc3ccccc3n2)s1 [BF-240, 2-(2-aminothiazol-5-yl)quinoline]	49.9	–
mainly stains senile plaques	CNc1ccc(/C=C/C=C/c2nc3ccccc3o2)cc1 [BF-185, 2-[[4-(4-methylamino)phenyl]-1,3-butadienyl)benzoxazole]	82.7	Plasma [4]: 1.0 %ID/g or ml; staining properties compared with immunostaining of anti-Aβ antibody 6F/3D [3]: stains senile plaques (Fig. 3, wedge-shaped arrowheads) and diffuse plaques
–	Cc1ccc(S(=O)(=O)OCCOc2ccc3nc(/C=C/c4cnc(N(C)C)s4)oc3c2)cc1 [BF-226, 2-[2-(2-dimethylaminothiazol-5-yl)ethenyl]-6-[2-(4-tosyloxy)ethoxy]benzoxazole]	43.3	–
mainly stains senile plaques	CN(C)c1ncc(/C=C/c2nc3ccccc3s2)s1 [BF-196, 2-[2-(2-dimethylaminothiazol-5-yl)ethenyl]benzothiazole]	53.5	Plasma [4]: 1.8 %ID/g or ml; tissue uptake at 2 min [4]: 19 %ID/g; staining properties compared with immunostaining of anti-Aβ antibody 6F/3D [3]: stains senile plaques
–	CN(C)c1ncc(/C=C/c2nc3ccc(I)cc3o2)s1 [BF-247, 6-(iodo)-2-[2-(2-dimethylaminothiazol-5-yl)ethenyl]benzoxazole]	43.7	–
–	CN(C)c1ncc(/C=C/c2ccc3ccccc3n2)s1 [BF-222, 2-[2-(2-dimethylaminothiazol-5-yl)ethenyl]quinoline]	62.3	MTD at 168 h [2]: ≥ 10 mg/kg; Plasma [4]: 2.0 %ID/g or ml; tissue uptake at 2 min [4]: 13 %ID/g
–	2-[2-(2-dimethylamino-1,3,4-thiazol-5-yl)ethenyl]benzoxazole [BF-237]	76.5	–
stains senile plaques	Nc1ccc(/C=C/C=C/c2nc3ccc(O)cc3o2)c(O)c1 [BF-201]	82.0	staining properties compared with immunostaining of anti-Aβ antibody 6F/3D [3]: stains senile plaques
–	CCC[CH2][Sn]([CH2]CCC)([CH2]CCC)[c]1ccc2nc(C=Cc3cnc(N(C)C)s3)oc2c1 [BF-246, 6-tri(n-butyl)stannyl-2-[2-(2-dimethylaminothiazol-5-yl)ethenyl]benzoxazole]	24.6	–
–	Cc1ccc2c(c1)sc(-c1ccc(N(C)C)cc1)[n+]2C [Thioflavin T, reference compound]	61.8	–

Molecule	staining properties in sections of the brain of a patient with Alzheimer's disease [3]	Degree of β-structure recognition (%) [1] [%]	other results
CNc1ccc(/C=C/C=C/C=C/c2ccc3ccccc3n2)cc1 [BF-189, 1-(4-methylaminophenyl)-6-(2-quinolyl)-1,3,5-hexatrien]	stains senile plaques	79.8	MTD at 168 h [2]: ≥ 10 mg/kg
thioflavin S [reference compound]	stains both senile plaques and neurofibrillary tangles	–	–
CN(C)c1ncc(/C=C/C=C/c2nc3ccccc3[nH]2)s1 [BF-231, 2-[4-(2-dimethylaminothiazol-5-yl)-1,3-butadienyl]benzoimidazole]	stains senile plaques	47.2	Maximum Tolerated Dose (mg/kg, intravenous administration) [2]: ≧ 10 mg/kg
O=C(O)c1cc(/C=C/c2ccc(/C=C/c3ccc(O)c(C(=O)O)c3)c(Br)c2)ccc1O [BSB, (trans, trans)-1-bromo-2,5-bis-(3-hydroxycarbonyl-4-hydroxy)styrylbenzen, reference compound]	stains both senile plaques and neurofibrillary tangles	–	–
